# Species: Rattus norvegicus
# Assay: DrugMatrix - Regimen: Daily Repeat
# Format: toxicity, organism-based, Sprague-Dawley
# Design: regimen Daily Repeat, gender Male, age 6-8 weeks
# Settings: in vivo, po, route oral GAVAGE, […]; for ABSOLUTE BASOPHIL / ABSOLUTE EOSINOPHIL / ABSOLUTE LYMPHOCYTE / ABSOLUTE MONOCYTE / ABSOLUTE SEGMENTED NEUTROPHIL / BASOPHIL / EOSINOPHIL / ERYTHROCYTE COUNT / HEMATOCRIT / LEUKOCYTE COUNT / LYMPHOCYTE / MEAN CORPUSCULAR HEMOGLOBIN / MEAN CORPUSCULAR HEMOGLOBIN CONCENTRATION / MEAN CORPUSCULAR VOLUME / NEUTROPHIL / NUCLEATED RED BLOOD CELLS / PLATELET COUNT / HEMOGLOBIN: tissue Blood; for ALANINE AMINOTRANSFERASE / ALBUMIN / ALKALINE PHOSPHATASE / ASPARTATE AMINOTRANSFERASE / BLOOD UREA NITROGEN / CARBON DIOXIDE / CHLORIDE / CHOLESTEROL / CREATINE PHOSPHOKINASE / CREATININE / LACTATE DEHYDROGENASE / LIPASE / PHOSPHORUS / POTASSIUM / SODIUM / TOTAL BILIRUBIN / URIC ACID: tissue Plasma
# [1] = 0 mg/kg, 72 h, dose level Control, time 3 day
# [2] = 0 mg/kg, 120 h, dose level Control, time 5 day
# [3] = 0 mg/kg, dose level Control, time 28 day
# [4] = 10 mg/kg, 72 h, dose level High, time 3 day
# [5] = 10 mg/kg, 120 h, dose level High, time 5 day
smiles,measurement,setting,value
O=C(O)Cc1ccccc1Nc1c(Cl)cccc1Cl [DICLOFENAC],ABSOLUTE BASOPHIL,[1],0 CELLS/uL
same,ABSOLUTE EOSINOPHIL,[1],0 CELLS/uL
same,ABSOLUTE LYMPHOCYTE,[1],8493 CELLS/uL
same,ABSOLUTE MONOCYTE,[1],127 CELLS/uL
same,ABSOLUTE SEGMENTED NEUTROPHIL,[1],896.67 CELLS/uL
same,BASOPHIL,[1],0%
same,EOSINOPHIL,[1],0%
same,ERYTHROCYTE COUNT,[1],5.53 x10E6/uL
same,HEMATOCRIT,[1],34.07%
same,LEUKOCYTE COUNT,[1],9.52 x10E3/uL
same,LYMPHOCYTE,[1],89.17%
same,MEAN CORPUSCULAR HEMOGLOBIN,[1],24.07 pg
same,MEAN CORPUSCULAR HEMOGLOBIN CONCENTRATION,[1],39.03 G/DL
same,MEAN CORPUSCULAR VOLUME,[1],61.62 fL
same,NEUTROPHIL,[1],9.5%
same,NUCLEATED RED BLOOD CELLS,[1],0.17 /100WBC
same,PLATELET COUNT,[1],1054.17 x10E3/uL
same,ALANINE AMINOTRANSFERASE,[1],77.67 u/L
same,ALBUMIN,[1],4.08 G/DL
same,ALKALINE PHOSPHATASE,[1],404.5 u/L
same,ASPARTATE AMINOTRANSFERASE,[1],83.17 u/L
same,BLOOD UREA NITROGEN,[1],14.33 mg/dL
same,CARBON DIOXIDE,[1],33.17 mmol/L
same,CHLORIDE,[1],101 MEQ/L
same,CHOLESTEROL,[1],76.33 mg/dL
same,CREATINE PHOSPHOKINASE,[1],184.5 u/L
same,CREATININE,[1],0.13 mg/dL
same,LACTATE DEHYDROGENASE,[1],130.33 u/L
same,LIPASE,[1],11 u/L
same,PHOSPHORUS,[1],9.27 mg/dL
same,POTASSIUM,[1],6.26 MEQ/L
same,SODIUM,[1],143.57 MEQ/L
same,TOTAL BILIRUBIN,[1],0.18 mg/dL
same,URIC ACID,[1],1.38 mg/dL
same,ABSOLUTE BASOPHIL,[2],0 CELLS/uL
same,ABSOLUTE EOSINOPHIL,[2],0 CELLS/uL
same,ABSOLUTE LYMPHOCYTE,[2],8546.17 CELLS/uL
same,ABSOLUTE MONOCYTE,[2],49.5 CELLS/uL
same,ABSOLUTE SEGMENTED NEUTROPHIL,[2],554.33 CELLS/uL
same,NUCLEATED RED BLOOD CELLS,[2],0.17 /100WBC
same,CARBON DIOXIDE,[2],33.17 mmol/L
same,CREATININE,[2],0.18 mg/dL
same,LACTATE DEHYDROGENASE,[2],111.5 u/L
same,LIPASE,[2],9.5 u/L
same,URIC ACID,[2],0.78 mg/dL
same,BASOPHIL,[3],0.42%
same,EOSINOPHIL,[3],0.58%
same,ERYTHROCYTE COUNT,[3],8.06 x10E6/uL
same,HEMATOCRIT,[3],48.44%
same,HEMOGLOBIN,[3],16.34 G/DL
same,LEUKOCYTE COUNT,[3],13.04 x10E3/uL
same,LYMPHOCYTE,[3],85.12%
same,MEAN CORPUSCULAR HEMOGLOBIN,[3],20.26 pg
same,MEAN CORPUSCULAR HEMOGLOBIN CONCENTRATION,[3],33.74 G/DL
same,MEAN CORPUSCULAR VOLUME,[3],60.1 fL
same,NEUTROPHIL,[3],11.28%
same,PLATELET COUNT,[3],1226 x10E3/uL
same,ALANINE AMINOTRANSFERASE,[3],28.6 u/L
same,ALBUMIN,[3],3.94 G/DL
same,ALKALINE PHOSPHATASE,[3],254.6 u/L
same,ASPARTATE AMINOTRANSFERASE,[3],67.8 u/L
same,BLOOD UREA NITROGEN,[3],10.4 mg/dL
same,CHLORIDE,[3],104.6 MEQ/L
same,CHOLESTEROL,[3],57.6 mg/dL
same,CREATINE PHOSPHOKINASE,[3],224.8 u/L
same,CREATININE,[3],0.4 mg/dL
same,PHOSPHORUS,[3],10.66 mg/dL
same,POTASSIUM,[3],6.58 MEQ/L
same,SODIUM,[3],148.6 MEQ/L
same,TOTAL BILIRUBIN,[3],0.24 mg/dL
same,ABSOLUTE BASOPHIL,[4],0 CELLS/uL
same,ABSOLUTE EOSINOPHIL,[4],0 CELLS/uL
same,ABSOLUTE LYMPHOCYTE,[4],9500.33 CELLS/uL
same,ABSOLUTE MONOCYTE,[4],68 CELLS/uL
same,ABSOLUTE SEGMENTED NEUTROPHIL,[4],1065 CELLS/uL
same,BASOPHIL,[4],0%
same,EOSINOPHIL,[4],0%
same,ERYTHROCYTE COUNT,[4],5.04 x10E6/uL
same,HEMATOCRIT,[4],30.83%
same,HEMOGLOBIN,[4],12.23 G/DL
same,LEUKOCYTE COUNT,[4],10.63 x10E3/uL
same,LYMPHOCYTE,[4],90%
same,MEAN CORPUSCULAR HEMOGLOBIN,[4],24.3 pg
same,MEAN CORPUSCULAR HEMOGLOBIN CONCENTRATION,[4],39.67 G/DL
same,MEAN CORPUSCULAR VOLUME,[4],61.23 fL
same,NEUTROPHIL,[4],9%
same,NUCLEATED RED BLOOD CELLS,[4],0 /100WBC
same,PLATELET COUNT,[4],988.67 x10E3/uL
same,ALANINE AMINOTRANSFERASE,[4],55.67 u/L
same,ALBUMIN,[4],3.43 G/DL
same,ALKALINE PHOSPHATASE,[4],322 u/L
same,ASPARTATE AMINOTRANSFERASE,[4],70.67 u/L
same,BLOOD UREA NITROGEN,[4],11.67 mg/dL
same,CARBON DIOXIDE,[4],33.33 mmol/L
same,CHLORIDE,[4],101 MEQ/L
same,CHOLESTEROL,[4],79.33 mg/dL
same,CREATINE PHOSPHOKINASE,[4],148 u/L
same,CREATININE,[4],0.12 mg/dL
same,LACTATE DEHYDROGENASE,[4],105 u/L
same,LIPASE,[4],9.33 u/L
same,PHOSPHORUS,[4],10 mg/dL
same,POTASSIUM,[4],6.12 MEQ/L
same,SODIUM,[4],145.77 MEQ/L
same,TOTAL BILIRUBIN,[4],0.17 mg/dL
same,URIC ACID,[4],1.47 mg/dL
same,ABSOLUTE BASOPHIL,[5],0 CELLS/uL
same,ABSOLUTE EOSINOPHIL,[5],0 CELLS/uL
same,ABSOLUTE LYMPHOCYTE,[5],5111.33 CELLS/uL
same,ABSOLUTE MONOCYTE,[5],0 CELLS/uL
same,ABSOLUTE SEGMENTED NEUTROPHIL,[5],1222 CELLS/uL
same,BASOPHIL,[5],0%
same,EOSINOPHIL,[5],0%
same,ERYTHROCYTE COUNT,[5],4.43 x10E6/uL
same,HEMATOCRIT,[5],26.73%
same,HEMOGLOBIN,[5],10.7 G/DL
same,LEUKOCYTE COUNT,[5],6.33 x10E3/uL
same,LYMPHOCYTE,[5],76.67%
same,MEAN CORPUSCULAR HEMOGLOBIN,[5],24.2 pg
same,MEAN CORPUSCULAR HEMOGLOBIN CONCENTRATION,[5],40.03 G/DL
same,MEAN CORPUSCULAR VOLUME,[5],60.47 fL
same,NEUTROPHIL,[5],23.33%
same,NUCLEATED RED BLOOD CELLS,[5],0.67 /100WBC
same,PLATELET COUNT,[5],1253.67 x10E3/uL
same,ALANINE AMINOTRANSFERASE,[5],24 u/L
same,ALBUMIN,[5],2.23 G/DL
same,ALKALINE PHOSPHATASE,[5],221.33 u/L
same,ASPARTATE AMINOTRANSFERASE,[5],56 u/L
same,BLOOD UREA NITROGEN,[5],17.33 mg/dL
same,CARBON DIOXIDE,[5],31.67 mmol/L
